Experimental data as given in US20040214789A1, “Therapeutics” (priority 2001, published 2004).
“Also recorded” adds a separate entry of the source.

What was measured:
[1] = tested on: soluble ADP-ribosyl cyclase from Jurkat T lymphocytes; assay: Inhibition of partially purified soluble ADP-ribosyl cyclase, cyclase activity; format: biochemical, human; details: soluble fraction, 100 μM 1,N6-etheno-NAD substrate
Experimental: (§1) FIG. 1-a, b—Inhibition of intracellular, soluble ADP-ribosyl cyclase by 8-Br-NHD. Soluble protein (S100 protein) was prepared from Jurkat T cells (10^9 cells) as described (Guse et al., Nature 1999) and soluble ADP-ribosyl cyclase was partially purified by hydroxyapatite chromatography. Partially purified ADP-ribosyl cyclase was then incubated with 100 μM substrate (1,N^6-etheno-NAD) in the presence or absence of various concentrations of 8-Br-NHD. The formation of 1,N^6-etheno-cADPR and 1,N^6-etheno-ADPR was continuously monitored by fluorimetry (exc. 300 nm, em. 410 nm). Finally, the precise amount of products 1,N^6-etheno-cADPR and 1,N^6-etheno-ADPR was quantified by HPLC (da Silva et al., 1998a) using a fluorescence detector. Data are presented as mean ±SD (n≧3).
(§2) Soluble protein (S100 protein) was prepared from Jurkat T cells (10^9 cells) as described (Guse et al., Nature 1999) and soluble ADP-ribosyl cyclase was partially purified by hydroxyapatite chromatography. […] The formation of 1,N^6-etheno-cADPR and 1,N^6-etheno-ADPR was continuously monitored by fluorimetry (exc. 300 nm, em. 410 nm). Finally, the precise amount of products 1,N^6-etheno-cADPR and 1,N^6-etheno-ADPR was quantified by HPLC (da Silva et al., 1998a) using a fluorescence detector. Data are presented as mean±SD (n≧3).

[2] = tested on: P10 ADP-ribosyl cyclase from Jurkat T lymphocytes; assay: Inhibition of P10 (heavy membrane) ADP-ribosyl cyclase, cyclase activity; format: biochemical, human; details: for Inhibition of intracellular membrane bound P10 ADP-ribosyl cyclase (in words): heavy (P10) membranes from Jurkat T cells, FIG. 3; for Enzyme Activity (% of control), Cyclase activity: P10 fraction, 100 μM 1,N6-etheno-NAD substrate
Experimental: (§3) Heavy membrane (P10 membranes) were prepared from Jurkat T cells (10^9 cells) as described (Guse et al., Nature 1999). P10-ADP-ribosyl cyclase was then incubated with 100 μM substrate (1,N^6-etheno-NAD) in the presence or absence of various concentrations of 8-Br-NHD. The formation of 1,N^6-etheno-cADPR and 1,N^6-etheno-ADPR was continuously monitored by fluorimetry (exc. 300 nm, em. 410 nm). Finally, the precise amount of products 1,N^6-etheno-cADPR and 1,N^6-etheno-ADPR was quantified by HPLC (da Silva et al., 1998a) using a fluorescence detector. Data are presented as mean±SD (n≧3).

[3] = tested on: NAD glycohydrolase activity of soluble protein fraction from Jurkat T lymphocytes; assay: Inhibition of NAD glycohydrolase (NADase) activity in the soluble fraction; format: biochemical, human
Experimental: as §1, §2

[4] = tested on: NAD glycohydrolase activity of P10 membranes from Jurkat T lymphocytes; assay: Inhibition of NAD glycohydrolase (NADase) activity in the P10 fraction; format: biochemical, human; details: for Inhibition of NADase activity in the P10 fraction (in words): FIG. 3; for Enzyme Activity (% of control), NAD glycohydrolase activity: P10 fraction
Experimental: as §3

[5] = tested on: TCR/CD3-mediated Ca2+-signalling of the human Jurkat T cell line; assay: TCR/CD3-mediated Ca2+ signalling, Fura2 ratiometric imaging; format: cell-based; details: preincubation 250 or 500 μM for 30 min, anti-CD3 OKT3 stimulation, 25 min after stimulation; FIG. 5
Experimental: Intact Jurkat T cells were loaded with Fura2-AM, and Ca^2+ signalling was measured by digital ratiometric Ca^2+ imaging (Guse et al., Nature 1999). For technical reasons the excitation wavelengths were set to 340 and 365 nm, whereas emission was filtered at 520 nm. The cells were preincubated with 250 or 500 μM 8-Br-NHD for 30 min. Then the cells were stimulated by anti-CD3 antibody OKT3 ([…]) in solution, and the cells were transferred to the examination chamber on the digital imaging station. The intracellular Ca^+ concentration was then monitored for about 25 min with a sampling rate of 3 or 6/min. Data are presented as mean intracellular Ca^2+ concentration ±SEM 25 min after stimulation. Numbers in brackets indicate the number of cells investigated in 3 independent experiments.

[6] = target: T1, ecto-ADP-ribosyl cyclase (CD38) (Homo sapiens, UniProt P28907); assay: Inhibition of cell surface ADP-ribosyl cyclase on intact Jurkat T cells; format: cell-based; details: FIG. 4
T1 construct: Intact Jurkat T cells expressing ecto-ADP-ribosyl cyclase; endogenous in cells; host or cells: intact Jurkat T cells
T1 sequence (P28907 1-300): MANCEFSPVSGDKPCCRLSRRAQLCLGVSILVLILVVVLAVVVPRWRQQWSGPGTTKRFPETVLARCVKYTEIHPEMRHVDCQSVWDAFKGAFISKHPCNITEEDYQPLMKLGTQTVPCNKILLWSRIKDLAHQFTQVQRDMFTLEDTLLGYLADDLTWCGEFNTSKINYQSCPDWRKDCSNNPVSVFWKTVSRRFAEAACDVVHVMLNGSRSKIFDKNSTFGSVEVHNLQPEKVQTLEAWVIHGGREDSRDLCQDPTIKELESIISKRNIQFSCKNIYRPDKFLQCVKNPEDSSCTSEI
Experimental: (§4) Intact Jurkat T cells expressing ecto-ADP-ribosyl cyclase (da Silva et al., 1998b) were incubated with 100 μM substrate (1,N^6-etheno-NAD) in the presence or absence of various concentrations of 8-Br-NHD. It is likely that this enzyme is CD38. The formation of 1,N^6-etheno-cADPR and 1,N^6-etheno-ADPR was continuously monitored by fluorimetry (exc. 300 nm, em. 410 nm). Finally, the precise amount of products 1,N^6-etheno-cADPR and 1,N^6-etheno-ADPR was quantified by HPLC (da Silva et al., 1998a) using a fluorescence detector. Data are presented as mean±SD (n≧3).

[7] = target: T2, NADase activity of intact Jurkat T cells expressing ecto-ADP-ribosyl cyclase (Homo sapiens, UniProt P28907); assay: Inhibition of NADase activity on intact Jurkat T cells; format: cell-based; details: FIG. 4
T2 construct: Intact Jurkat T cells expressing ecto-ADP-ribosyl cyclase; endogenous in cells; host or cells: intact Jurkat T cells
T2 sequence (P28907 1-300): T1 sequence (P28907 1-300)
Experimental: as §4

[8] = tested on: human Jurkat T cells; assay: Proliferation of Jurkat T cells, trypan blue cell counting; format: cell-based; details: present for 4 or 5 days; FIG. 6
Experimental: FIG. 6—Inhibition of proliferation of the human Jurkat T cell line by 8-Br-NHD. Proliferation of intact Jurkat T cells was measured as described earlier (Guse et al., Cell Calcium 1997). Various concentrations of 8-Br-NHD were added to the cultures in 96 well plates, and were present for 4 or 5 days. The number of living cells was determined every day by cell counting of trypan blue stained cells. Data are mean±SD from 2 independent experiments.

[9] = tested on: NADase; details: positive controls; cited from earlier work

Row | Enzyme Activity (% of control), Cyclase activity ([1]; inhibitor 10 μM) | Enzyme Activity (% of control), Cyclase activity ([1]; inhibitor 100 μM) | Inhibition of intracellular membrane bound P10 ADP-ribosyl cyclase (in words) [2] | Enzyme Activity (% of control), Cyclase activity ([2]; inhibitor 10 μM) | Enzyme Activity (% of control), Cyclase activity ([2]; inhibitor 100 μM) | Enzyme Activity (% of control), NAD glycohydrolase activity ([3]; inhibitor 10 μM) | Enzyme Activity (% of control), NAD glycohydrolase activity ([3]; inhibitor 100 μM) | Inhibition of NADase activity in the P10 fraction (in words) [4] | Enzyme Activity (% of control), NAD glycohydrolase activity ([4]; inhibitor 10 μM) | Enzyme Activity (% of control), NAD glycohydrolase activity ([4]; inhibitor 100 μM) | Enzyme Activity (% of control), Cyclase activity ([1]; inhibitor 1000 μM) | Enzyme Activity (% of control), Cyclase activity ([2]; inhibitor 1000 μM) | Enzyme Activity (% of control), NAD glycohydrolase activity ([3]; inhibitor 1000 μM) | Enzyme Activity (% of control), NAD glycohydrolase activity ([4]; inhibitor 1000 μM) | Structure (SMILES) | Second, sustained phase of Ca2+ signaling (in words) [5] | Inhibition of ecto-ADP-ribosyl cyclase (in words) [6] | Inhibition of NADase activity, cell surface (in words) [7] | Proliferation of Jurkat T cells (in words) [8] | Published as inhibitor of NADase [9]
1 | 46.0 % of control | 10.6 % of control | inhibit | 63.6 % of control | 11.26 % of control | 37.3 % of control | 13.5 % of control | inhibit | 59.0 % of control | 0 % of control |  |  |  |  | NC(=O)c1ccc[n+](C2OC(COP(=O)(O)OP(=O)(O)OCC3OC(n4cnc5c(=O)[nH]cnc54)C(O)C3O)C(O)C2O)c1 (stereo not drawn) [NHD, nicotinamide hypoxanthine dinucleotide] |  |  |  |  | 
2 | 99.2 % of control | 38.2 % of control |  | 94.0 % of control | 43.3 % of control | 95.2 % of control | 29.6 % of control |  | 94.2 % of control | 42.6 % of control | 10.6 % of control | 14.9 % of control | 8.2 % of control | 12.4 % of control | NC(=O)c1cccnc1 [Nicotinamide, nicotinamide, reference compound] |  |  |  |  | published as inhibitors of NADase
3 | 80.5 % of control | 65.4 % of control |  | 112.3 % of control | 93.4 % of control | 81.3 % of control | 59.4 % of control |  | 115.0 % of control | 91.9 % of control | 36.5 % of control | 56.9 % of control | 26.9 % of control | 48.8 % of control | NC(=O)c1ccc[n+]([C@@H]2O[C@H](COP(=O)([O-])O)[C@@H](O)[C@H]2O)c1 [β-NMN, β-nicotinamide mononucleotide, reference compound] |  |  |  |  | published as inhibitors of NADase

More lines, now with the values behind:

Row | Structure (SMILES) | Enzyme Activity (% of control), Cyclase activity ([1]; inhibitor 10 μM) | Enzyme Activity (% of control), Cyclase activity ([1]; inhibitor 100 μM) | Inhibition of intracellular membrane bound P10 ADP-ribosyl cyclase (in words) [2] | Enzyme Activity (% of control), Cyclase activity ([2]; inhibitor 10 μM) | Enzyme Activity (% of control), Cyclase activity ([2]; inhibitor 100 μM) | Enzyme Activity (% of control), NAD glycohydrolase activity ([3]; inhibitor 10 μM) | Enzyme Activity (% of control), NAD glycohydrolase activity ([3]; inhibitor 100 μM) | Inhibition of NADase activity in the P10 fraction (in words) [4] | Enzyme Activity (% of control), NAD glycohydrolase activity ([4]; inhibitor 10 μM) | Enzyme Activity (% of control), NAD glycohydrolase activity ([4]; inhibitor 100 μM) | Enzyme Activity (% of control), Cyclase activity ([1]; inhibitor 1000 μM) | Enzyme Activity (% of control), Cyclase activity ([2]; inhibitor 1000 μM) | Enzyme Activity (% of control), NAD glycohydrolase activity ([3]; inhibitor 1000 μM) | Enzyme Activity (% of control), NAD glycohydrolase activity ([4]; inhibitor 1000 μM) | Second, sustained phase of Ca2+ signaling (in words) [5] | Inhibition of ecto-ADP-ribosyl cyclase (in words) [6] | Inhibition of NADase activity, cell surface (in words) [7] | Proliferation of Jurkat T cells (in words) [8] | Published as inhibitor of NADase [9]
4 | NC(=O)c1ccc[n+]([C@@H]2O[C@H](COP(=O)([O-])OP(=O)(O)OC[C@H]3O[C@@H](n4ccc5c(=O)[nH]cnc54)[C@H](O)[C@@H]3O)[C@@H](O)[C@H]2O)c1 [7-deaza-NHD, 7-deaza-nicotinamide hypoxanthine dinucleotide] | 94.0 % of control | 69.3 % of control | inhibit | 97.9 % of control | 82.1 % of control | 94 % of control | 80.5 % of control | inhibit | 97.5 % of control | 83.3 % of control |  |  |  |  |  |  |  |  | 
5 | NC(=O)c1ccc[n+](C2OC(COP(=O)([O-])OP(=O)(O)OCC3OC(n4c(Br)nc5c(=O)[nH]cnc54)C(O)C3O)C(O)C2O)c1 (stereo not drawn) [8-Br-NHD, nicotinamide 8-bromohypoxanthine dinucleotide] | 57.7 % of control | 13.0 % of control | dose-dependently inhibited; also recorded: inhibit | 59.2 % of control | 14.3 % of control | 55.5 % of control | 3.3 % of control | inhibited with a similar pharmacology; also recorded: inhibit | 60.8 % of control | 15.6 % of control |  |  |  |  | significantly reduced | dose-dependent inhibition | inhibited with a similar pharmacology | dose-dependently inhibits | 
